Data as given in publication PMC7893793 (ACS Omega, 2021).

Legend:
[1] = Pharmacokinetic study in rats after oral administration of PbR extract; type: in vivo, rat; settings: for AUC(0-inf) / AUC(0-t) / Cmax / MRT inf / MRT last / Tmax / half-life: male, Wistar, plasma, po, 5 g/kg; for AUC(0-inf) / AUC(0-t) / Cmax / MRT inf / MRT last / Tmax / half-life / absorption characteristics: rat; for absorption characteristics: oral administration of PbR
[2] = Stability of analytes in rat plasma samples; type: in vitro ADME; settings: three freeze–thaw (−80 °C–room temperature) cycles, low, medium and high QC samples

| AUC(0-inf) [1] [ng·h/mL] | AUC(0-t) [1] [ng·h/mL] | Cmax [1] [ng/mL] | MRT inf [1] [h] | MRT last [1] [h] | Tmax [1] [h] | half-life [1] [h] | absorption characteristics [1] | freeze–thaw stability in plasma samples [2] | detection in rat plasma ([1]; after oral administration of PbR at a dose of 0.5 g/100 g) | Structure (SMILES) |
| --- | --- | --- | --- | --- | --- | --- | --- | --- | --- | --- |
| 159 ± 34.2 | 141 ± 33.4 | 41.6 ± 13.8 | 5.28 ± 0.73 | 3.84 ± 0.61 | 0.7 ± 0.14 | 3.59 ± 1.05 | good absorption characteristics | No significant degradation |  | COC(=O)C1=CO[C@@H](O[C@@H]2O[C@H](CO)[C@@H](O)[C@H](O)[C@H]2O)[C@H]2[C@@H]1[C@H](O)C[C@]2(C)O [shanzhiside methyl ester] |
| 63.2 ± 17.4 | 55.1 ± 15.5 | 24.4 ± 8.4 | 4.65 ± 1.43 | 3.12 ± 0.64 | 0.33 ± 0.13 | 3.33 ± 1.21 | good absorption characteristics | No significant degradation |  | COC(=O)C1=CO[C@@H](O[C@@H]2O[C@H](CO)[C@@H](O)[C@H](O)[C@H]2O)[C@H]2[C@@H]1[C@H](O)C[C@]2(C)OC(C)=O [barlerin] |
|  |  |  |  |  |  |  |  |  | neither of these were detected | C[C@@H]1O[C@@H](O[C@@H]2[C@@H](O)[C@H](OCCc3ccc(O)c(O)c3)O[C@H](COC(=O)/C=C/c3ccc(O)c(O)c3)[C@H]2O)[C@H](O)[C@H](O)[C@H]1O [isoacteoside] |
